Measurements reported in patent US10801077B2, “Influenza A virus variants” (Vertex Pharmaceuticals Incorporated, priority 2014, dated 2020).

Tests used:
[1] = tested on: A/Puerto Rico/8/34, A/California/07/2009, A/Wisconsin/67/2005 influenza virus variants; type: cell-based
PR8-Wild Type = assay: microbe, parasite or virus in culture; type: cell-based, influenza A virus
PR8-PB2-F323L = type: cell-based, influenza A virus
PR8-PB2-S324N = type: cell-based, influenza A virus
PR8-PB2-S324R = type: cell-based, influenza A virus
PR8-PB2-F325V = type: cell-based, influenza A virus
PR8-PB2-H357Q = type: cell-based, influenza A virus
PR8-PB2-K376Q = type: cell-based, influenza A virus
PR8-PB2-K376R = type: cell-based, influenza A virus
PR8-PB2-M431I = type: cell-based, influenza A virus

`CC(C)(C)[C@@H](CC(=O)O)Nc1nc(-c2c[nH]c3ncc(F)cc23)ncc1F` [Compound 1] was tested, and the “reduction in sensitivity to Compound 1” value [1] was greater than 10 fold, the “shift in Compound 1 EC50” value [1] was 10- to 1720 fold and the “shifts in sensitivity to Compound 1” value [1] was “greater than 10 fold”. For the same compound, the “Sensitivity to Compound 1 Fold EC50 Shift” value (PR8-Wild Type) was 1.0 fold, the EC50 (PR8-Wild Type; Influenza A virus, PR8, MDCK, read-out: Sensitivity to Compound 1 EC50 (SD)) was 1.3 nM and the “Sensitivity to Compound 1 Fold EC50 Shift” value (PR8-PB2-F323L) was 8.5 fold. For the same compound, the “Sensitivity to Compound 1 Fold EC50 Shift” value (PR8-PB2-S324N) was 31 fold, the “Sensitivity to Compound 1 Fold EC50 Shift” value (PR8-PB2-S324R) was 33 fold and the “Sensitivity to Compound 1 Fold EC50 Shift” value (PR8-PB2-F325V) was 3.5 fold. For the same compound, the “Sensitivity to Compound 1 Fold EC50 Shift” value (PR8-PB2-H357Q) was 15 fold, the “Sensitivity to Compound 1 Fold EC50 Shift” value (PR8-PB2-K376Q) was 408 fold and the “Sensitivity to Compound 1 Fold EC50 Shift” value (PR8-PB2-K376R) was 231 fold. For the same compound, the “Sensitivity to Compound 1 Fold EC50 Shift” value (PR8-PB2-M431I) was 131 fold.
